Experiment [1] concerns alloantigen-specific T cells. The experiment is described as follows: Inhibitory effect against alloantigen-specific T cells in vitro (mixed lymphocyte reaction, CFSE / 7-AAD). Particulars: for Apoptosis % (mean ± SD) Primary Response / Apoptosis % (mean ± SD) Secondary Response: 72 hours; for Apoptosis % (mean ± SD) Primary Response: vehicle 30.91 ± 3.80; for Apoptosis % (mean ± SD) Secondary Response: vehicle 39.10 ± 4.10. Format: cell-based, mouse. Here is the method:
The lymph nodes and spleens were aseptically collected from normal C57BL/6 mice (8-12 week old, female, 20±2 g) and were ground with adding of RPMI medium. Then, the ground tissues were passed through a cell strainer (BD Falcon) to make single cell suspensions. The single cell suspension of the spleen was centrifuged at 1200 rpm for 5 minutes. The supernatant was removed, and then 1 mL of ammonium chloride/potassium bicarbonate (ACK) lysis buffer (0.15 M NH4Cl, 1 mM KHCO3, 0.1 mM Na2EDTA) was added to the cells, which were then vortexed for 1 minute and washed with RPMI medium. […] The incubated cell suspension was added with 10 mL of MACS buffer, centrifuged for 5 minutes, washed, and then re-suspended in 2 mL of MACS buffer. The suspended cells were placed in the autoMACS Pro Separator (Miltenyi Biotec), and T cells bound to CD90.2 microbeads were isolated. The isolated T cells were washed with phosphate buffered saline (PBS), and then re-suspended in PBS at a concentration of 1×10^8 cells/mL. Normal BALB/c mice (10-12 week old, female, 20-23 g) were irradiated with 950 rad of γ radiation using IBL 437C irradiator (CIS bio international), and then 100 μL of the above-prepared T cell suspension of C57BL/6 mice were injected into the tail vein of the BALB/c mice. At 3 days after the cell injection, the mice were sacrificed, and the spleens were obtained. An erythrocyte-free single cell suspension was made from the obtained spleens in the same manner as described above, and donor T cells were separated from the spleen cell suspension using the autoMACS Pro Separator, thereby preparing secondary responder cells. Meanwhile, T cells were isolated from normal C57BL/6 mice in the same manner as described above, thereby preparing primary responder cells. Each of the primary and secondary responder cells were re-suspended in 1 mL of 1% FBS-containing PBS, and treated with 3 μM of carboxyfluorescein diacetate succinimidyl ester (CFSE, Invitrogen), and then allowed to react at room temperature for 4 minutes. To stop the reaction, cold-stored 5% FBS-containing PBS was added to the cell suspension, followed by washing. The washed cells were re-suspended in 10% FBS-containing RPMI medium at a concentration of 2×10^6/mL. The spleens of normal BALB/c mice (8-12 week old, female, 20±2 g) were aseptically collected. The erythrocyte-free spleen cells were prepared in the same manner as described above, and then re-suspended in 1 mL of PBS. 0.5 mg/mL of Mitomycin-C(Sigma) was added to the suspension at a concentration of 0.5 μg/mL, and the cells were incubated at 37° C. for 20 minutes, and then washed three times with an excessive amount of PBS. The washed cells were re-suspended in 10% FBS-containing RPMI medium at a concentration of 4×10^6 cells/mL, thereby preparing stimulator cells. The primary and secondary responder cells were mixed with the stimulator cells at a ratio of 1:1 separately, and 200 μL of each cell mixtures was dispensed into each well of a round bottom 96-well plate (Costar). Then, the cells were treated with 10 μL of Compound 229 diluted in RPMI medium at various concentrations, and incubated in a 5% CO2 incubator at 37° C. for 72 hours. In a vehicle control group, the cells were 10 μL of 0.2% DMSO-containing RPMI medium. The incubated cells were placed into 5-mL FACS tubes and washed with 1 mL of fluorescence activated cell sorting (FACS) buffer (1% FBS and 0.1% sodium azaide in PBS). The washed cells were re-suspended in 0.1 mL of FACS buffer, and then treated with 1 μg of mouse immunoglobulin G (IgG, e-Biosciences) in order to prevent the non-specific binding of antibody, followed by incubation at 4° C. for 15 minutes. Then, the cells were stained with 0.5 μg of phycoerythrin-conjugated anti-mouse H-2K^b mAb (e-Biosciences) and stained at 4° C. for 30 minutes. After the staining, the cells were washed twice with 1 mL of FACS buffer, re-suspended in 0.1 mL of FACS buffer, stained with 7-AAD at room temperature for 5 minutes. […]

In a further experiment the test system is Jurkat. The experiment is described as follows: Apoptosis of lymphoid malignancy cell lines (Annexin V / 7-AAD): Jurkat. Format: cell-based. Particulars: Homo sapiens, Acute T cell leukemia, 24 hours, read-out: Administration Dose (mean ± SD, μmol/L) Lethal Dose 50 (Apoptosis). The protocol:
(§1) Each of the acute T cell leukemia cell lines Jurkat, Molt4 and CCRF-CEM, the acute B cell leukemia cell line Raji and the […] cell lines KMS11, KMS12BM, KMS26, KMS28BM, and IM9 was re-suspended in 10% FBS-containing RPMI medium at a concentration of 1.5×10^5 cells/mL, and 200 μL of each of the cell suspensions was cultured in a flat bottom 96-well plate (Costar). The acute NK cell lymphoma cell line NK-92MI was re-suspended in α-MEM medium (supplemented with 20% FBS, 1×MEM vitamine solution, 50 μM 2-mercaptoethanol and 1× penicillin/streptomycin) at a concentration of 1.5×10^5 cells/mL, and 200 μL of the cell suspension was cultured in a flat bottom 96-well plate. The cells in each well was treated with 10 μL of each of 0.1, 0.25, 0.5, 0.75 and 1 μM of the compound diluted with RPMI medium, followed by that the cells were incubated in a 5% CO2 incubator at 37° C. for 24 hours. In a vehicle control group, cells were treated with 10 μL of medium containing 0.05% dimetylsulfoxide (DMSO, Sigma).
The cells were collected, and then the apoptosis thereof was analyzed by a flow cytometer after staining with Annexin V-7-AAD. The incubated cells were collected, placed in a 5-mL FACS tube (BD Falcon) and washed with 1 mL of fluorescence activated cell sorting (FACS) buffer (1%. FBS and 0.1% sodium azaide in PBS). The cells were re-suspended in 0.1 mL of FACS buffer, followed by that the cells were treated and stained with phycoerythrin-Annexin V at room temperature for 10 minutes. After 10 minutes of staining, the cells were treated and stained with 7-AAD at room temperature for 5 minutes. The stained cells were suspended in 0.3 mL of FACS buffer, and then analyzed by a flow cytometer. […] Thus, compounds 065, 108, 229 and 457 of the present invention can be used as a novel anti-lymphoid malignancy drug.

In another experiment the test system is KMS12BM. Put plainly: Apoptosis of lymphoid malignancy cell lines: KMS12BM. It is filed as cell-based. To be noted: Homo sapiens, KMS-12-BM, Multiple myeloma, 24 hours, read-out: Administration Dose (mean ± SD, μmol/L) Lethal Dose 50 (Apoptosis). Here is the method:
as §1, with “In a vehicle control group, cells were treated with 10 μL of medium containing 0.05% dimetylsulfoxide (DMSO, Sigma).” left out
(§2) The cells were collected, and then the apoptosis thereof was analyzed by a flow cytometer after staining with Annexin V-7-AAD. The incubated cells were collected, placed in a 5-mL FACS tube (BD Falcon) and washed with 1 mL of fluorescence activated cell sorting (FACS) buffer (1%. FBS and 0.1% sodium azaide in PBS). […] The stained cells were suspended in 0.3 mL of FACS buffer, and then analyzed by a flow cytometer. […]

The subject of another experiment is KMS26. The experiment is described as follows: Apoptosis of lymphoid malignancy cell lines: KMS26. Format: cell-based. Particulars: KMS-26; KMS26, Multiple myeloma, 24 hours; read-out: Administration Dose (mean ± SD, μmol/L) Lethal Dose 50 (Apoptosis). The protocol:
as §1, with “In a vehicle control group, cells were treated with 10 μL of medium containing 0.05% dimetylsulfoxide (DMSO, Sigma).” left out
as §2

Turning to `Cc1cc(C)c(OCC(=O)N/N=C/c2ccc3cc[nH]c3c2)c(C2CCOC2)c1` (stereo not drawn) [Compound 229, (E)-N′-((1H-indol-6-yl)methylene)-2-(2,4-dimethyl-6-(tetrahydrofuran-3-yl)phenoxy)acetohydrazide], the “Apoptosis % (mean ± SD) Primary Response” value in experiment [1] (0.125 μM, 7-AAD) came to 28.42 ± 5.31%; in experiment [1] (0.25 μM, 7-AAD) it was 31.20 ± 4.26%; in experiment [1] (0.5 μM, 7-AAD), 45.01 ± 5.48 %; in experiment [1] (1 μM, 7-AAD), 50.37 ± 6.19 %. The “Apoptosis % (mean ± SD) Secondary Response” value in experiment [1] (0.125 μM, 7-AAD) was 41.40 ± 4.35%; in experiment [1] (0.25 μM, 7-AAD), 60.27 ± 6.10 %; in experiment [1] (0.5 μM, 7-AAD), 81.70 ± 5.62 %; in experiment [1] (1 μM, 7-AAD) it was 80.37 ± 7.16 %. Besides, the “increase of apoptosis compared to the vehicle control group, secondary response” value in experiment [1] (0.25 μM or higher, 7-AAD) was 21-42%. Besides, in experiment [1] (0.5 μM or higher, 7-AAD), the “increase of apoptosis compared to the vehicle control group, primary response” value is recorded as 14-19%. Besides, in experiment [1] (0.5 μM or higher, vehicle control 50%), the “ratio of T cells (CFSE low) that proliferated in response to the alloantigen, of the total T cells” value is no more than 3%. Also, the “proliferation of the alloantigen-specific T cells, secondary response” value in experiment [1] (T cells activated primarily by the alloantigen in vivo, reacted with the same antigen in vitro) was “effectively inhibited”. The EC50 with Jurkat worked out at 0.62 µmol/L; in the experiment with KMS12BM it was 0.94 ± 0.09 µmol/L; in the experiment on KMS26 it was 1.31 ± 0.35 µmol/L.

(Values after US9447083B2, “N-acylhydrazone derivatives for selective T cell inhibitor and anti-lymphoid malignancy drug” (CHONG KUN DANG PHARMACEUTICAL CORP., priority 2012, dated 2016).)
